Data on seven molecules can be found in patent US6277847A, “Herbicidal isoindolinonyl-and 3,4-dihydroisoquinolonyl-substituted heterocycles” (FMC Corporation, priority 2000, dated 2001).

Holding throughout (format): in vivo
Experiment [1] deals with velvetleaf (Abutilon theophrasti). Kind of experiment: pre-emergence herbicidal activity, velvetleaf. The following applies: 1 kg/Ha, about fourteen days, read-out: pre-emergence herbicidal activity (% control) ABUTH. The protocol: (§1) This example sets forth the methods of herbicidal testing conducted on the specific compounds set forth below. Specifically, the compounds referenced below were tested for pre- and post-emergence herbicidal activity using a variety of crops and weeds. The test plants include, but are not limited to, soybean (Glycine max -- var. Winchester), field corn (Zea mays var. Pioneer 3732), wheat (Triticum aestivum var. Lew), morningglory (Ipomea lacunosa or Ipomea hederacea), velvetleaf (Abutilon theophrasti), green foxtail (Setaria viridis), Johnsongrass (Sorghum halepense), blackgrass (Aloepecurus myosuroides), common chickweed (Stellaria media), and common cocklebur (Xanthium strumarium L.).
(§2) In the post-emergence test, seeds of the plant species named above were planted in flats containing the appropriate soil mixture where they were maintained to allow the seeds to germinate. When the plants in these flats reached the proper stage of growth, flats for the pre-emergence tests were planted in a like manner. The flats containing the post-emergence and pre-emergence test plant species were then sprayed with an appropriately concentrated water/acetone solution of test compound. Once treated the flats were maintained, along with untreated controls, for about fourteen days. All treated plants were then examined for phytotoxicity, which was expressed as percent control where 0 is no effect and 100 is complete control. Effective rates of application for the compounds of the present invention range from 0.001 to 3 kg/ha, more likely from […] to 1 Kg/ha.
(§3) Herbicidal activity data at selected application rates are in Tables 4 and 5. The test compounds are identified by numbers correspond to those in Table 1.
(§4) Rate of application of test compound is 1 kg/Ha
(§5) SOY is soybean, WHT is wheat, CRN is corn, ABUTH is velvetleaf, IPOSS is
(§6) morningglory, STEME is chickweed, XANPE is cocklebur, ALOMY is blackgrass, […]

Experiment [2] concerns green foxtail (Setaria viridis). Kind of experiment: post-emergence herbicidal activity, green foxtail. The following applies: 1 Kg/Ha, about fourteen days, read-out: post-emergence herbicidal activity (% control) SETVI. As for the experimental part: as §1, §2, §3, §5
(§7) morningglory, STEME is chickweed, XANPE is cocklebur, ALOMY is blackgrass,
(§8) Rate of application of test compound is 1 Kg/Ha. The definitions as shown under Table 4 apply to Table 5.

Experiment [3] has the same test system. Kind of experiment: pre-emergence herbicidal activity, green foxtail. The following applies: 1 kg/Ha, about fourteen days, read-out: pre-emergence herbicidal activity (% control) SETVI. The protocol: as §1, §2, §3, §4, §5, §6
Experiment [4] concerns velvetleaf (Abutilon theophrasti). Description: post-emergence herbicidal activity, velvetleaf. The following applies: 1 Kg/Ha, about fourteen days, read-out: post-emergence herbicidal activity (% control) ABUTH. The protocol:
as §1, §2, §3, §5, §7, §8

In experiment [5] the test system is Johnsongrass (Sorghum halepense). Kind of experiment: post-emergence herbicidal activity, johnsongrass. As to conditions: 1 Kg/Ha, about fourteen days, read-out: post-emergence herbicidal activity (% control) SORHA. The protocol:
as §1, §2, §3, §5, §7, §8

The test system of experiment [6] is morningglory (Ipomea lacunosa or Ipomea hederacea). Description: post-emergence herbicidal activity, morningglory. As to conditions: Ipomoea, 1 Kg/Ha, about fourteen days, read-out: post-emergence herbicidal activity (% control) IPOSS. The protocol: as §1, §2, §3, §5, §7, §8
Experiment [7] has the same test system. Description: pre-emergence herbicidal activity, morningglory. The following applies: Ipomoea, 1 kg/Ha, about fourteen days, read-out: pre-emergence herbicidal activity (% control) IPOSS. As for the experimental part: as §1, §2, §3, §4, §5, §6
The test system of experiment [8] is wheat (Triticum aestivum var. Lew). Description: post-emergence herbicidal activity, wheat. The following applies: 1 Kg/Ha, about fourteen days, read-out: post-emergence herbicidal activity (% control) WHT. As for the experimental part:
as §1, §2, §3, §5, §7, §8

Experiment [9] has as its system blackgrass (Aloepecurus myosuroides). Description: pre-emergence herbicidal activity, blackgrass. As to conditions: Alopecurus myosuroides, 1 kg/Ha, about fourteen days, read-out: pre-emergence herbicidal activity (% control) ALOMY. The protocol:
as §1, §2, §3, §4, §5, §6

Experiment [10] relates to common chickweed (Stellaria media). Kind of experiment: pre-emergence herbicidal activity, chickweed. As to conditions: 1 kg/Ha, about fourteen days, read-out: pre-emergence herbicidal activity (% control) STEME. The protocol: as §1, §2, §3, §4, §5, §6
Experiment [11] relates to common cocklebur (Xanthium strumarium L.). Description: pre-emergence herbicidal activity, cocklebur. The following applies: 1 kg/Ha, about fourteen days, read-out: pre-emergence herbicidal activity (% control) XANPE. As for the experimental part:
as §1, §2, §3, §4, §5, §6

Experiment [12] relates to soybean (Glycine max -- var. Winchester). Kind of experiment: pre-emergence herbicidal activity, soybean. As to conditions: 1 kg/Ha, about fourteen days, read-out: pre-emergence herbicidal activity (% control) SOY. As for the experimental part: as §1, §2, §3, §4, §5, §6
Experiment [13] relates to field corn (Zea mays var. Pioneer 3732). Kind of experiment: post-emergence herbicidal activity, corn. As to conditions: 1 Kg/Ha, about fourteen days, read-out: post-emergence herbicidal activity (% control) CRN. The protocol: as §1, §2, §3, §5, §7, §8
Experiment [14] deals with soybean (Glycine max -- var. Winchester). Description: post-emergence herbicidal activity, soybean. As to conditions: 1 Kg/Ha, about fourteen days, read-out: post-emergence herbicidal activity (% control) SOY. The protocol: as §1, §2, §3, §5, §7, §8
In experiment [15] the test system is common cocklebur (Xanthium strumarium L.). Kind of experiment: post-emergence herbicidal activity, cocklebur. As to conditions: 1 Kg/Ha, about fourteen days, read-out: post-emergence herbicidal activity (% control) XANPE. As for the experimental part: as §1, §2, §3, §5, §7, §8
In experiment [16] the test system is field corn (Zea mays var. Pioneer 3732). Kind of experiment: pre-emergence herbicidal activity, corn. The following applies: 1 kg/Ha, about fourteen days, read-out: pre-emergence herbicidal activity (% control) CRN. The protocol:
as §1, §2, §3, §4, §5, §6

The test system of experiment [17] is common chickweed (Stellaria media). Kind of experiment: post-emergence herbicidal activity, chickweed. The following applies: 1 Kg/Ha, about fourteen days, read-out: post-emergence herbicidal activity (% control) STEME. The protocol:
as §1, §2, §3, §5, §7, §8

In experiment [18] the test system is wheat (Triticum aestivum var. Lew). Kind of experiment: pre-emergence herbicidal activity, wheat. The following applies: 1 kg/Ha, about fourteen days, read-out: pre-emergence herbicidal activity (% control) WHT. The protocol: as §1, §2, §3, §4, §5, §6

Turning to `COc1ccc(CN2Cc3c(-n4c(=O)cc(C(F)(F)F)n(C)c4=O)ccc(Cl)c3C2=O)cc1` [Compound 25], the activity at 1000 g/ha in experiment [1] was determined as 100%; in experiment [2], 100%; in experiment [3] it was 100%; in experiment [4], 100%; in experiment [5] it was 75%; in experiment [6] it was 90%. Further, the activity at 1000 g/ha in [7] came out at 70%; in experiment [8] it was 40%; in experiment [9] it was 75%; in [10], 100%; in [11], 40%; in experiment [12] it was 50%. The activity at 1000 g/ha in [13] worked out at 90%; in experiment [14] it was 80%; in experiment [15], 60%; in experiment [16] it was 95%; in experiment [17], 80%; in experiment [18] it was 60%.
Regarding `COC(=O)CCN1Cc2c(-n3c(=O)cc(C(F)(F)F)n(C)c3=O)ccc(Cl)c2C1=O` [Compound 26], the activity at 1000 g/ha was 100% in [1]; 100% in [2]; 80% in experiment [3]; 100% in [4]; 80% in [5]; 80% in [6]. For the same molecule, the activity at 1000 g/ha was found to be 80% in [7]; 70% in [8]; 80% in [9]; 100% in [10]; 100% in experiment [11]; 100% in experiment [12]. In addition, the activity at 1000 g/ha in experiment [13] turned out to be 95%; in experiment [14], 100%; in experiment [15], 100%; in experiment [16], 80%; in experiment [17] it was 100%; in experiment [18], 50%.
In the case of `Cn1c(C(F)(F)F)cc(=O)n(-c2ccc(Cl)c3c2CN(CC(F)(F)F)C3=O)c1=O` [Compound 28], the activity at 1000 g/ha in experiment [1], in experiment [2], in [3], in experiment [4], in experiment [5] and in [6] was 100% in each case. Moreover, the activity at 1000 g/ha in experiment [7], in experiment [8], in experiment [9], in experiment [10], in experiment [11] and in experiment [12] was 100% throughout. The activity at 1000 g/ha in experiment [13], in [14], in experiment [15], in experiment [16], in experiment [17] and in experiment [18] was 100% in each case.
Turning to `Cn1c(C(F)(F)F)cc(=O)n(-c2ccc(Cl)c3c2CN(CC2CC2)C3=O)c1=O` [Compound 29], the activity at 1000 g/ha in experiment [1], in [2], in [3], in experiment [4], in [5] and in experiment [6] was 100% each time. Also, the activity at 1000 g/ha in experiment [7], in [8], in experiment [9], in experiment [10], in experiment [11] and in [12] was 100% in each case. Further, the activity at 1000 g/ha in experiment [13], in [14], in [15], in experiment [16], in experiment [17] and in experiment [18] was 100% each time.
For the molecule `Cn1c(C(F)(F)F)cc(=O)n(-c2ccc(Cl)c3c2CN(CC#N)C3=O)c1=O` [Compound 30], the activity at 1000 g/ha in experiment [1], in experiment [2], in experiment [3], in experiment [4], in experiment [5] and in [6] was 100% in each case. Besides, the activity at 1000 g/ha is 100% in [7]; 60% in experiment [8]; 100% in experiment [9]; 100% in experiment [10]; 100% in experiment [11]; 100% in [12]. For the same molecule, the activity at 1000 g/ha in [13] stood at 95%; in experiment [14], 100%; in experiment [15] it was 100%; in experiment [16] it was 100%; in experiment [17] it was 100%; in [18], 100%.
With `COCN1Cc2c(-n3c(=O)cc(C(F)(F)F)n(C)c3=O)ccc(Cl)c2C1=O` [Compound 31], the activity at 1000 g/ha in [1], in [2], in experiment [3], in [4], in experiment [5] and in experiment [6] was 100% throughout. In addition, the activity at 1000 g/ha in experiment [7], in [8], in experiment [9], in experiment [10], in experiment [11] and in experiment [12] was 100% throughout. For the same molecule, the activity at 1000 g/ha in experiment [13], in experiment [14], in experiment [15], in [16], in experiment [17] and in experiment [18] was 100% throughout.
In the case of `CC(C)N1Cc2c(-n3c(=O)cc(C(F)(F)F)n(N)c3=O)ccc(Cl)c2C1=O` [Compound 70], the activity at 1000 g/ha in experiment [1], in [2], in experiment [3], in experiment [4], in experiment [5] and in [6] was 100% throughout. The activity at 1000 g/ha in experiment [7], in experiment [8], in experiment [9], in experiment [10], in [11] and in experiment [12] was 100% throughout. For the same molecule, the activity at 1000 g/ha in experiment [13], in [14], in experiment [15], in experiment [16], in [17] and in experiment [18] was 100% throughout.
